Results from patent US11123338B2, “C-met modulator pharmaceutical compositions” (Exelixis, Inc., priority 2010, dated 2021).

Legend:
[1] = Moisture uptake / hygroscopicity (moisture vapor isotherm); type: physicochemical; conditions: for Hygroscopicity (remark in words): salt screen summary table
Method: Moisture sorption isotherms were collected in a VTI SGA-100 Symmetric Vapor Analyzer using approximately 10 mg of sample. The sample was dried at 60° C. until the loss rate of less than or equal to 0.0005 weight percent per minute was obtained for 10 minutes. […] Equilibration at each RH was reached when the rate of less than or equal to 0.0003 weight percent per minute for 35 minutes was achieved, or at a maximum of 600 minutes.

[2] = Solid-state stability on exposure to high humidity and high temperature; type: physicochemical
[3] = Water solubility of free base and salts from the salt screen; conditions: for Solubility (remark in words): salt screen
Method: The water solubility of the various salts was determined using 10 mg solids per mL water.

[4] = Thermal stability by DSC/TGA; type: physicochemical
Method: The sample (about 10-30 mg) was placed in a previously tared platinum pan. The weight of the sample was measured accurately and recorded to a thousand of a milligram. The furnace was purged with nitrogen gas at 100 mL/min. Data were collected between room temperature and 300° C. at 10° C./min heating rate.
The sample (about 2-6 mg) was weighed in an aluminum pan, accurately recorded to a hundredth of a milligram, and transferred to the DSC. The instrument was purged with nitrogen gas at 50 mL/min. Data were collected between room temperature and 300° C. at a 10° C./min heating rate.

[5] = Storage stability under controlled temperature / relative humidity; type: physicochemical
[6] = water, thermodynamic from solid
[7] = water solubility, 10 mg solids per mL water

| Compound | Hygroscopicity (remark in words) [1] | Solubility (remark in words) ([3]; water solubility) | solubility [3, 6] [µg/mL] | solubility [3, 7] [µg/mL] | also measured |
| --- | --- | --- | --- | --- | --- |
| Cl [Chloride] | Crystalline but Hygroscopic; possible |  |  |  | Moisture sensitivity (phase behaviour on exposure) ([2]; high humidity (75 percent RH) and high temperature (40° C.)): changing phase |
| COc1cc2nccc(Oc3ccc(NC(=O)C4(C(=O)Nc5ccc(F)cc5)CC4)cc3)c2cc1OC [Free base, N-[4-[(6,7-Dimethoxy-4-quinolinyl)oxy]phenyl]-N′-(4-fluorophenyl)-1,1-cyclopropanedicarboxamide] |  | very low solubility | < 1 |  |  |
| COc1cc2nccc(Oc3ccc(NC(=O)C4(C(=O)Nc5ccc(F)cc5)CC4)cc3)c2cc1OC.O=C(O)C[C@@H](O)C(=O)O [L-Malate, cyclopropane-1,1-dicarboxylic acid [4-(6,7-dimethoxy-quinoline-4-yloxy)-phenyl]-amide (4-fluoro-phenyl)-amide, (L) malate salt] | Crystalline; non-Hygroscopic with no |  | 59 |  | Amount of water taken up ([1]; at 90 percent RH): about 0.60 weight percent; Solubility (remark in words) ([3]; water solubility, listed as L-malate salt, malate salt): sufficient solubility; Solid state phase and degree of crystallinity after exposure ([2]; 75 percent RH at 40° C. for 1 week): remained unchanged; Stable up to (DSC/TGA) [4]: up to 185 °C; Change in assay, purity, moisture, and dissolution ([5]; 25° C./60 percent relative humidity (RH)): no change; Change in assay, purity, moisture, and dissolution ([5]; 40° C./60 percent RH): no change; Chemical/physical stability (remark in words) ([5]; salt screen summary table): chemical/physical stability. |
| O=C(O)[C@H](O)[C@@H](O)C(=O)O [L-Tartrate] | Hygroscopic. |  |  |  |  |
| Phosphate | Crystalline but Hygroscopic. |  |  | 26 | Weight gain due to absorption of H2O ([1]; highest among the salts tested): 8% |
| Tosylate |  | Crystalline salt, low solubility |  | 7 |  |
